Reference: US7223733B2, “Modulation of TRIP-Br function and method of treating proliferative disorders” (National University of Singapore, priority 2004, dated 2007)
[invdT] = inverted (3'-3') thymidine

Assays:
WI-38 cells [1] = assay: BrdU incorporation, serum-induced S phase entry of WI-38 cells; assay type: cell-based, human; settings: WI-38, 0.1 μM, 20 h; compared to unstimulated cells
Procedure: (§1) DNA enzyme transfection. WI-38 cells were rendered quiescent by cultivation in serum-free medium for 72 h before being transfected with DNA enzyme (0.1 μM) using Superfect as reported previously (Santiago, F. S., et al. Nat Med 5, 1264-1269 (1999)) in accordance to manufacturer's recommendations (Qiagen).
(§2) Cell proliferation assays. For the BrdU incorporation assays, growth-quiescent WI-38 cells in 96-well dishes were transfected with DNA enzyme and/or 100 ng of pCMV/E2F1, pCMV/DP1, pRSV/Cyclin E, or pCMV/Cdk2 and then exposed to Bromodeoxyuridine (BrdU, 100 μM) in the presence or absence of 10% FBS for 20 h. Bromodeoxyuridine (BrdU) incorporation was monitored with a calorimetric ELISA assay using a cell proliferation kit according to manufacturer's recommendations (Boehringer Mannheim). For manual cell count, growth-quiescent WI-38 cells in 24-well dishes were transfected with DNA enzyme and then exposed to 10% FBS for 72 h. The cells were rinsed with PBS, pH 7.4, and trypsinized, and 10 μl of cell suspension was taken from each sample and mixed with equal volume of trypan blue stain (Sigma, 0.4% w/v in 1×PBS). The number of unstained cells was enumerated manually using a hemocytometer. For colony formation assays, growth-quiescent WI-38 cells in 12-well dishes were transfected with DNA enzyme and then exposed to 10% FBS for 120 h. Cells were stained in situ with crystal violet (0.75% w/v hexamethyl-p-rosaniline chloride [SIGMA], 50% ethanol, 1.75% w/v paraformaldehyde, 0.25% w/v NaCl) for 10 min, and then rinsed thoroughly with deionized water to remove excess stains.
FIG. 13: (A) E-Br1 or E-Br2 suppresses serum-inducible S phase entry. Sub-confluent WI-38 cells were serum-starved for 72 h. Following DNA enzyme transfection, the cultures were re-stimulated with serum and allowed to proliferate in BrdU labeling medium. After 20 h, cells were assayed for BrdU incorporation with a colorimetric ELISA assay. Values represent the average of at least two independent experiments. […] Sub-confluent WI-38 cells were serum-starved for 72 h. […]

hTRIP-Br2 mRNA = assay: Semi-quantitative RT-PCR of intact hTRIP-Br2 transcripts in WI-38 cells; assay type: cell-based, human; settings: WI-38, 0.1 μM, 16 h post-stimulation with 10% FBS
Procedure: as §1
(§3) Semi-quantitative RT-PCR. Following various treatments, WI-38 cells in 6-well culture dish were subjected to total RNA extraction using the TRIZOL® Reagent (Life Technologies). Total RNA (4 μg) was reversed transcribed using oligo-dT and M-MLV reverse transcriptase in a total reaction volume of 20 μl. Polymerase Chain Reactions (PCR) were carried out on 3 μl cDNA sample in the presence of […] deoxyribonucleotide triphosphates (dNTPs) and 40 μM of specific primer pairs in a total reaction volume of 50 μl. […] Post-PCR samples were analyzed by agarose gel electrophoresis.
(§4) FIG. 11: (A) hTRIP-Br1 and hTRIP-Br2 expression is serum-inducible. […] At 24 h post-serum re-stimulation, semi-quantitative RT-PCR analysis was performed on total RNA to assess hTRIP-Br1 and hTRIP-Br2 expression. β-actin was included as an internal control. […] Semi-quantitative RT-PCR analysis was performed on total RNA to assess hTRIP-Br1 and hTRIP-Br2 expression. β-actin was included as an internal control. […]

hTRIP-Br1 mRNA = assay: Semi-quantitative RT-PCR of intact hTRIP-Br1 transcripts in WI-38 cells; assay type: cell-based, human; settings: WI-38, 0.1 μM, 16 h post-stimulation with 10% FBS
Procedure: as §1, §3, §4

WI-38 cells [2] = assay: Colony formation assay of WI-38 cells (crystal violet); assay type: cell-based, human; settings: WI-38, serum-induced, 72 h
Procedure: as §1
as §2, with “For colony formation assays, growth-quiescent WI-38 cells in 12-well dishes were transfected with DNA enzyme and then exposed to 10% FBS for 120 h.” left out
FIG. 12: (A) E-Br1 or E-Br2 inhibits cell proliferation. Sub-confluent WI-38 cells were serum-starved for 72 h. Following DNA enzyme transfection, the cultures were re-stimulated with serum and allowed to proliferate. After 72 h, cells were harvested for viable cell count analysis. 10 μl of cell suspension from each sample was mixed with equal volume of 0.4% trypan blue stain. The number of unstained cells was enumerated manually using a hemocytometer. Data represent the average of at least two independent experiments. […] (B) E-Br1 or E-Br2 suppresses colony formation. Sub-confluent WI-38 cells were serum-starved for 72 h. […]

WI-38 fibroblasts = assay: Trypan blue exclusion manual cell count of serum-stimulated WI-38 cells; assay type: cell-based, human; settings: WI-38, 0.1 μM, 72 h post-stimulation
Procedure: as §1
as §2, with “Cells were stained in situ with crystal violet (0.75% w/v hexamethyl-p-rosaniline chloride [SIGMA], 50% ethanol, 1.75% w/v paraformaldehyde, 0.25% w/v NaCl) for 10 min, and then rinsed thoroughly with deionized water to remove excess stains.” left out

[3] = test system: caspase-3 protease activity; assay: Caspase assay with Ac-DEVD-AFC in U2OS cells; assay type: cell-based, human; settings: 24 h
Procedure: Caspase assay. Both adherent and detached cells in 6-well dishes were harvested by centrifugation at 2000 rpm for 15 min at 4° C. The resulting cell pellets were incubated in 50 μl of chilled lysis buffer (Clontech) on ice for 10 min. Cell lysates were incubated in a reaction mix containing 10 mM HEPES, 2.0 mM EDTA, 10 mM KCl, 1.5 mM MgCl2, 1.0 mM PMSF, aprotinine, pepstatin A and leupeptine (20 μM each), 6.0 mM DTT and Ac-DEVD-AFC (4.0 μg/ml). Reactions were allowed to proceed at room temperature. Fluorescence readings were taken at 15 min intervals for 1 h using a spectrofluorometer (excitation wavelength: 400 nm; emission wavelength: 505 nm).
(§5) FIG. 6: Caspase assay. (A) Caspase 3 protease activity in U2OS cells exposed to either Eto (Etoposide) for 24 h or 50 μM decoy peptides for 48 or 72 h, were assayed using the Ac-DEVD-AFC fluorogenic substrate. […] Values represent the average +/− standard deviation of two independent experiments. Control: cells cultured in normal growth medium; Vehicle: cells cultured in the presence of 0.5% DMSO; (B) Western blot analysis of PARP cleavage. U2OS cells were exposed to either Eto (Etoposide) for 24 h or 50 μM decoy peptides for 72 h. Lane 1: Vehicle cells (cultured in the presence of 0.5% DMSO for 24 h); Lane 2: 25 μM Eto; Lane 3: 250 μM Eto; Lane 4: Vehicle (cells cultured in the presence of 0.5% DMSO for 72 h); Lane 5: *SCR; Lane 6: *Br1; Lane 7: *Br2.

PARP cleavage = assay: Western blot analysis of PARP cleavage in U2OS cells; assay type: cell-based, human; settings: 25 and 250 μM, 24 h
Procedure: Denaturing SDS-PAGE and western blotting. Proteins from whole cell lysate and IP complexes were separated using standard denaturing polyacrylamide gel electrophoresis as described previously (Hsu, S. I. H., et al. EMBO J 20, 2273-2285 (2001)).
as §5

U2OS cells = assay: Cell cycle synchronization of U2OS cells, flow cytometry; assay type: cell-based, human; settings: 75 ng/ml, 22 h, data not shown
Procedure: Cell synchronization and cell cycle progression analyses. U2OS cells in 6-well dishes were subjected to nocodazole treatment (75 ng/ml) for 22 h. Thereafter, the nocodazole-arrested cultures were released by washing with 1×PBS and grown in DMEM plus 10% FBS containing either vehicle (0.5% DMSO) or 20 μM decoy peptides. Cells were harvested at 4-h intervals for standard Western blot analyses. For the analysis of Geminin protein profile, mock- or cyclin E/Cdk2-transfected U2OS cells were exposed to nocodazole (75 ng/ml) at 3 h post-transfection for 22 h.

FLAG-TRIP-Br1 = assay: Western blot with TB1-27#2 and peptide competition; assay type: binding, human; settings: lysates of transfected U2OS cells
Procedure: For Western blot analysis, U2OS cells transfected with the pcDNA3 vector, pcDNA3 vector with TRIP-Br1 insert or TRIP-Br2 insert were harvested. The lysates were separated in a 10% acrylamide gel and blotted onto a transfer membrane. The blot was cut and probed with a mouse monoclonal anti-FLAG antibody or TB1-27#2. For 2 sections, TB1-27 and Cyr61 peptides were added in addition to TB1-27#2 as a source of competition.

FLAG-TRIP-Br1 protein = assay: Immunoprecipitation assay with TB1-27#2 and peptide competition; assay type: binding, human; settings: lysates of transfected U2OS cells
Procedure: In an immunoprecipitation assay, fifty microliters of Protein A-agarose (Amersham) were incubated with 2 ml of TB1-27#2 spent media overnight. Each aliquot of agarose was washed and added to the lysates of variously transfected U2OS cells. The TB1-27 and Cyr61 peptides were separately added into 2 of the reactions while one of the reactions was probed with mouse monoclonal anti-His antibodies instead of […]. The agarose was harvested and washed the next day, and the bound proteins analyzed by SDS-PAGE. The gel was blotted and detected with anti-FLAG antibodies. The results are shown in FIG. 23 (the left panel contains 1/10th of the input of the pre-cleared U2OS cell lysate while the right panel contains the proteins eluted from the Protein A-agarose). […] Anti-DP-1 was used as a positive control for immunoprecipitation since it is known that TRIP-Br1 interacts directly with DP-1.

**Q.** For “5′-C AGCTACTGTGGCTAGCTACAACGACCTGTCAT-3′ (DNA CAGCTACTGTGGCTAGCTACAACGACCTGTCAT; DNA, 3' [invdT], backbone not given here) [E-SCR, reference compound]”, which “BrdU incorporation on serum stimulation” value (WI-38 cells [1]) is on record?
**A.** approximately twice as much BrdU

**Q.** And the “serum-inducible steady-state hTRIP-Br2 mRNA level” value (hTRIP-Br2 mRNA)?
**A.** no effect

**Q.** What about the “serum-inducible steady-state hTRIP-Br1 mRNA level” value (hTRIP-Br1 mRNA) of the same compound?
**A.** no effect

**Q.** And the colony forming potential (WI-38 cells [2])?
**A.** colony forming potential similar to the normal and the vehicle-treated controls

**Q.** And the “effects on WI-38 growth as compared to vehicle-treated cells” value (WI-38 fibroblasts)?
**A.** no significant effects

**Q.** For COc1cc([C@@H]2c3cc4c(cc3[C@@H](O[C@@H]3O[C@@H]5CO[C@@H](C)O[C@H]5[C@H](O)[C@H]3O)[C@H]3COC(=O)[C@H]23)OCO4)cc(OC)c1O [Etoposide, etoposide, reference compound], which caspase-3 activity [3] is on record?
**A.** dose-dependent stimulation of caspase-3 activity several orders of magnitude above baseline

**Q.** What about the PARP cleavage (PARP cleavage) of the same compound?
**A.** resulted in PARP cleavage in a dose-dependent manner

**Q.** COC(=O)Nc1nc2ccc(C(=O)c3cccs3)cc2[nH]1 [nocodazole] was tested. Which “cells arrested at the G2/M boundary with 4N DNA content” value (U2OS cells) did it give?
**A.** more than 90%

**Q.** “DPGHTAAVAQAPPAVAS (Immunogenic peptide from human TRIP-Br1; listed as Homo sapiens) [TB1-27]” was tested. Which “blocking of TB1-27#2 binding in Western blot” value (FLAG-TRIP-Br1) did it give?
**A.** able to block the binding

**Q.** What about the “effect of competing peptide on TB1-27#2 binding to FLAG-TRIP-Br1 in immunoprecipitation” value (FLAG-TRIP-Br1 protein) of the same compound?
**A.** abolished the binding
